Assay results from patent US8163718B2, “Nucleoside analogues containing phosphonate or phosphonamide groups” (Gilead Sciences, Inc., priority 2008, dated 2012).

Legend:
Assay in all cases: Cytostatic cell culture assay (GI50), SRB
Type in all cases: cell-based
A549 = details: Homo sapiens, A549, 120 h; 5 days incubation
In short: (§1)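 In this 5-day cytostatic SRB assay at 37 °C, cells attached overnight before 5-fold compound dilutions were added. Plates fixed on day 0 and day 5 were stained with SRB, and absorbance was read at 500 nm. Growth was normalized against the day-0 and untreated controls to fit GI50.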

BT-549 = details: Homo sapiens, BT-549, 120 h; 5 days incubation
In short: as §1

Du-145 = details: Homo sapiens, DU-145, 120 h; 5 days incubation
In short: as §1

HCT-116 = details: Homo sapiens, HCT-116, 120 h; 5 days incubation
In short: as §1

HCT-15 = details: Homo sapiens, HCT-15, 120 h; 5 days incubation
In short: as §1

Hs-578 = details: Hs578, 120 h; 5 days incubation
In short: as §1

NCI-H23 = details: Homo sapiens, NCI-H23, 120 h; 5 days incubation
In short: as §1

PC3 = details: Homo sapiens, PC-3, 120 h; 5 days incubation
In short: as §1

CCCOc1nc(N)nc2c1ncn2CCOCP(=O)(N1CCC[C@H]1C(=O)OCC)N1CCC[C@H]1C(=O)OCC [Example 21] was tested, and the GI50 (A549) was 0.128 µM, the GI50 (BT-549) was 0.033 µM and the GI50 (Du-145) was 0.002 µM. It also gave a GI50 (HCT-116) of 0.041 µM, a GI50 (HCT-15) of 6.7 µM and a GI50 (Hs-578) of 0.017 µM. It also gave a GI50 (NCI-H23) of 0.002 µM and a GI50 (PC3) of 0.026 µM.
